Values quoted from earlier work as cited in patent publication US20070134341A1, “COMPOSITIONS OF LIPOXYGENASE INHIBITORS” (priority 2005, published 2007).

- solubility in acetonitrile (acetonitrile): slightly soluble
- solubility in ethanol (ethanol): soluble
- solubility in hexane (hexane): practically insoluble
- solubility in methanol (methanol): soluble
- solubility in water (water): practically insoluble
- water solubility (water, 25° C.): 80 to 140 µg/mL
Structure (SMILES): CC(c1cc2ccccc2s1)N(O)C(N)=O (racemic) [Zileuton, (±)-1-(1-benzo[b]thien-2-ylethyl)-1-hydroxyurea]
